Measurements taken from patent US10308689B2, “Dengue virus (DV) polypeptide sequences, T cell epitopes and methods and uses thereof” (LA JOLLA INSTITUTE FOR ALLERGY AND IMMUNOLOGY, priority 2010, dated 2019).
Ends that are not written are not given here.

Tested on: PBMC of healthy adult blood donors from Colombo, Sri Lanka
Experiment: Ex vivo IFNγ ELISPOT, HLA-matched PBMC of Sri Lankan blood donors
Assay type: cell-based, human
Design: Total Response per epitope: unit not given here
Details: for # donors responded: number of donors responding to the epitope; for T cell response [SFC]: ex vivo IFNγ SFC/10^6 PBMC; for # of responders: responding donors, HLA allele(s)
[1] = restricting HLA allele and serotype as given
[2] = total over responding donors, restricting HLA allele and serotype as given
[3] = IFNγ ELISPOT response summed over responding donors, per epitope
[4] = HLA-matched PBMC, proteome-wide screen

Compound | # donors responded [1] | Total Response per epitope [2] | T cell response [SFC] (per epitope) | # of responders | Total Response per epitope [3] | # donors responded [4]
CC(C)C[C@H](NC(=O)[C@H](CC(C)C)NC(=O)[C@@H](NC(=O)[C@H](C)NC(=O)[C@H](C)N)C(C)C)C(=O)N[C@@H](CC(C)C)C(=O)N[C@H](C(=O)N[C@H](C(=O)N[C@@H](Cc1c[nH]cn1)C(=O)N[C@@H](Cc1ccc(O)cc1)C(=O)O)[C@@H](C)O)C(C)C | 2 | 393.3 | – | – | – | –
CC(C)C[C@H](NC(=O)[C@@H](NC(=O)[C@@H](NC(=O)[C@H](CC(C)C)NC(=O)[C@@H]1CCCN1C(=O)CNC(=O)[C@@H](NC(=O)[C@H](C)N)[C@@H](C)O)[C@@H](C)O)[C@@H](C)O)C(=O)N[C@@H](Cc1c[nH]c2ccccc12)C(=O)O | 1 | 275.0 | 275 | 1 | – | –
CSCC[C@H](NC(=O)[C@H](CCSC)NC(=O)[C@H](CC(C)C)NC(=O)[C@@H](N)CS)C(=O)N[C@@H](CCSC)C(=O)N[C@@H](CC(C)C)C(=O)N1CCC[C@H]1C(=O)N[C@@H](C)C(=O)N[C@H](C(=O)N[C@@H](CC(C)C)C(=O)O)[C@@H](C)O | 1 | 78.3 | – | – | – | –
CC(C)C[C@H](NC(=O)[C@@H](NC(=O)[C@H](C)NC(=O)[C@H](CCC(=O)O)NC(=O)CNC(=O)[C@H](CCC(N)=O)NC(=O)[C@@H](NC(=O)[C@@H]1CCCN1C(=O)[C@@H](N)CS)[C@@H](C)O)[C@@H](C)O)C(=O)O | 1 | 295.0 | – | – | – | –
CC(C)C[C@H](NC(=O)[C@@H](NC(=O)[C@H](C)NC(=O)[C@H](CCC(=O)O)NC(=O)CNC(=O)[C@H](CCC(N)=O)NC(=O)[C@@H](NC(=O)[C@@H]1CCCN1C(=O)[C@@H](N)CS)[C@@H](C)O)C(C)C)C(=O)O | 2 | 385.0 | – | – | – | –
CC[C@H](C)[C@H](NC(=O)[C@@H]1CCCN1C(=O)[C@@H](N)CC(=O)O)C(=O)N1CCC[C@H]1C(=O)N[C@@H](Cc1ccc(O)cc1)C(=O)N[C@@H](CC(=O)O)C(=O)N1CCC[C@H]1C(=O)N[C@@H](CCCCN)C(=O)N[C@@H](Cc1ccccc1)C(=O)O | 1 | 38.3 | – | – | – | –
CC(C)[C@H](NC(=O)[C@H](C)NC(=O)[C@@H](N)CCC(=O)O)C(=O)N[C@@H](CCC(=O)O)C(=O)N[C@@H](CC(=O)O)C(=O)N[C@@H](CO)C(=O)N[C@@H](CCCNC(=N)N)C(=O)N[C@@H](Cc1ccccc1)C(=O)N[C@@H](Cc1c[nH]c2ccccc12)C(=O)N[C@@H](CCC(=O)O)C(=O)O | 1 | 248.3 | – | – | – | –
CC(C)C[C@H](NC(=O)[C@H](CCC(N)=O)NC(=O)CNC(=O)[C@@H]1CCCN1C(=O)[C@@H](N)CCC(=O)O)C(=O)N[C@@H](CCCCN)C(=O)N[C@@H](CC(C)C)C(=O)N[C@@H](CC(N)=O)C(=O)N[C@@H](Cc1c[nH]c2ccccc12)C(=O)N[C@@H](Cc1ccccc1)C(=O)O | 5 | 581.7 | – | – | – | –
CSCC[C@H](NC(=O)[C@H](CC(C)C)NC(=O)[C@H](CCCCN)NC(=O)[C@H](CCCCN)NC(=O)[C@@H](NC(=O)CNC(=O)[C@H](CCC(=O)O)NC(=O)[C@H](CCCCN)NC(=O)[C@@H]1CCCN1C(=O)[C@@H](N)CCC(=O)O)[C@@H](C)O)C(=O)O | 3 | 928.3 | – | – | – | –
CC[C@H](C)[C@H](N)C(=O)N1CCC[C@H]1C(=O)N[C@@H](CCSC)C(=O)N[C@H](C(=O)NCC(=O)N1CCC[C@H]1C(=O)N[C@@H](CC(C)C)C(=O)N[C@H](C(=O)N[C@@H](C)C(=O)NCC(=O)O)C(C)C)[C@@H](C)O | 5 | 1160.0 | – | – | – | –
CC[C@H](C)[C@H](N)C(=O)N[C@@H](CCC(N)=O)C(=O)N1CCC[C@H]1C(=O)N[C@@H](Cc1ccccc1)C(=O)N[C@@H](CC(C)C)C(=O)N[C@@H](C)C(=O)N[C@@H](CC(C)C)C(=O)NCC(=O)N[C@@H](Cc1ccccc1)C(=O)O | 1 | 85.0 | – | – | – | –
CC[C@H](C)[C@H](N)C(=O)N[C@H](C(=O)N[C@@H](CC(C)C)C(=O)N[C@@H](CC(C)C)C(=O)N[C@@H](CS)C(=O)N[C@@H](CC(C)C)C(=O)N[C@H](C(=O)N1CCC[C@H]1C(=O)N[C@H](C(=O)N[C@H](C(=O)O)C(C)C)[C@@H](C)O)[C@@H](C)CC)[C@@H](C)O | 1 | 63.3 | – | – | – | –
CC(C)C[C@H](NC(=O)[C@H](CCCNC(=N)N)NC(=O)[C@@H]1CCCN1C(=O)[C@@H](N)CCCCN)C(=O)N[C@@H](CS)C(=O)N[C@H](C(=O)N[C@@H](CCCNC(=N)N)C(=O)N[C@@H](CCC(=O)O)C(=O)N[C@@H](CCC(=O)O)C(=O)N[C@@H](Cc1ccccc1)C(=O)O)[C@@H](C)O | 1 | 350.0 | 350 | 1 | – | –
CC(C)C[C@H](NC(=O)[C@H](CCCNC(=N)N)NC(=O)[C@@H]1CCCN1C(=O)[C@@H](N)CC(N)=O)C(=O)N[C@@H](CS)C(=O)N[C@H](C(=O)N[C@@H](CCCNC(=N)N)C(=O)N[C@@H](CCC(=O)O)C(=O)N[C@@H](CCC(=O)O)C(=O)N[C@@H](Cc1ccccc1)C(=O)O)[C@@H](C)O | 1 | 365.0 | 365 | 1 | – | –
CC[C@H](C)[C@H](NC(=O)[C@H](CC(C)C)NC(=O)[C@H](CS)NC(=O)[C@H](CC(C)C)NC(=O)[C@H](CC(C)C)NC(=O)[C@@H](N)[C@@H](C)O)C(=O)N1CCC[C@H]1C(=O)N[C@H](C(=O)N[C@H](C(=O)O)C(C)C)[C@@H](C)O | – | 53.3 | – | – | – | –
CC[C@H](C)[C@H](NC(=O)[C@H](CCCCN)NC(=O)[C@H](CO)NC(=O)[C@H](CO)NC(=O)CN)C(=O)N[C@@H](CCCNC(=N)N)C(=O)N[C@@H](Cc1c[nH]c2ccccc12)C(=O)N[C@H](C(=O)N[C@H](C(=O)N[C@@H](CCC(=O)O)C(=O)O)C(C)C)[C@@H](C)CC [GSSKIRWIVE] | 2 | 111.7 | – | – | – | –
CSCC[C@H](NC(=O)[C@H](CC(C)C)NC(=O)[C@@H](NC(=O)[C@H](CCC(=O)O)NC(=O)[C@@H](N)CC(C)C)[C@@H](C)O)C(=O)N[C@@H](CC(C)C)C(=O)N[C@H](C(=O)N[C@@H](C)C(=O)N[C@@H](CC(C)C)C(=O)O)C(C)C [LETLMLVAL] | – | – | – | – | 103.3 | 1
CSCC[C@H](N)C(=O)N[C@H](C(=O)N[C@@H](CCC(N)=O)C(=O)N[C@@H](CCCCN)C(=O)N[C@@H](C)C(=O)N[C@@H](CCCNC(=N)N)C(=O)N[C@@H](CC(N)=O)C(=O)N[C@@H](C)C(=O)N[C@@H](CC(C)C)C(=O)O)[C@@H](C)O [MTQKARNAL] | – | – | – | – | 268.3 | 2
CSCC[C@H](NC(=O)[C@H](C)NC(=O)CNC(=O)[C@H](CCC(=O)O)NC(=O)[C@@H](N)CCC(N)=O)C(=O)N[C@@H](Cc1c[nH]cn1)C(=O)N[C@@H](CO)C(=O)N[C@@H](C)C(=O)N[C@@H](CC(C)C)C(=O)O [QEGAMHSAL] | – | – | – | – | 48.3 | 1
CSCC[C@H](NC(=O)[C@H](C)NC(=O)CNC(=O)[C@H](CCC(=O)O)NC(=O)[C@@H](N)CCC(N)=O)C(=O)N[C@@H](Cc1c[nH]cn1)C(=O)N[C@H](C(=O)N[C@@H](C)C(=O)N[C@@H](CC(C)C)C(=O)O)[C@@H](C)O [QEGAMHTAL] | – | – | – | – | 40.0 | 1
ATGPVLTLW | 2 | 390.0 | 390 | 2 | – | –
